Experimental findings from a melting point compilation (Tetko et al.; mined from patent text by program, amines drawn as free bases though some values may be those of a salt) are described below.

On to `Cc1cc(C)cc(SCCC(=O)O)c1`, for which the melting point fell in the range of 69 to 70 °C.

The molecule `CC(C#N)(CC#N)c1cccc([N+](=O)[O-])c1` (stereo unspecified) yielded a melting point of 142 to 143 °C.

Consider `O=C(CSCCNC(=O)c1ccco1)NCCCOc1cccc(CN2CCCCC2)c1`, for which the melting point lay in the range of 60.5 to 61.5 °C.

`Cn1nc(-c2c(F)cccc2Cl)nc1COc1ccc(C(C)(C)C)cc1`: the melting point was in the range of 84 to 86 °C.

Consider `COc1ccccc1N1CCN(CCCNC(=O)c2cccc3c2OC(C2CCCCC2)CC3)CC1` (stereo unspecified), for which the melting point fell in the range of 79 to 83 °C.

The molecule `O=c1oc2c(c(O)c1C(c1ccccc1)C1CC1)CCCCCC2CC1CCOC1` (stereo unspecified) showed a melting point of 80 to 84 °C.

Regarding `CC1CC(=O)Nc2ccc(Br)cc21` (stereo unspecified), the melting point is 190 °C.

As to `NC(=O)c1ccc(-c2ccc3nnn(Cc4ccc5ncccc5c4)c3n2)cc1`, the melting point lay in the range of 229 to 231 °C.

On to `Cc1cccc(C(C)C)c1NC(=O)Nc1c(-c2ccccc2F)c2cc(Cl)ccc2oc1=O`, for which the melting point is 217 to 218 °C.

Molecule `COc1ccc2cc([C@H](C)C(=O)NOCC(=O)NCCO[N+](=O)[O-])ccc2c1` yielded a melting point of 40 to 44 °C.

Regarding `CC1(c2ccccc2)C(=O)Nc2ccc(Cl)cc21` (stereo unspecified), the melting point is 180 to 181 °C.

For the molecule `CC1(C)Oc2ccc(S(=O)(=O)C(F)(F)F)cc2[C@@H](n2ccccc2=O)[C@@H]1O` (relative stereo), the melting point lay within 219 to 220 °C.

As to `C1=Cc2cc3ccccc3cc2CS1`, the melting point amounted to 84 °C.

`COc1cc2cc(CO)nc(-c3ccnc(NN)c3)c2cc1OC` yielded a melting point of 157 to 159 °C.

In the case of `CCOCc1nc2c(N)nc3ccccc3c2n1CC(C)(C)CS(=O)(=O)NCc1ccc(OC)cc1`, the melting point is 203 to 205 °C.

The molecule `CN1CCC(C#N)(c2ccc(Cl)cc2F)CC1` gave a melting point of 85 to 87 °C.

Molecule `CCCC(=O)c1cnc2c(OCCCN(C)CCCc3ccccc3)cccc2c1Nc1ccccc1C` yielded a melting point of 79 to 81 °C.

With `O=C(Nc1ccc(F)cc1)N1CC=CCN1`, the melting point lay within 100 to 101 °C.

The molecule `CC1=CC2=C(N3CN(O)C=C3N=N2)N(c2ccccc2Cl)C1` gave a melting point of 300 °C.

Regarding `Cc1ccc(C(C#N)(Cc2c[nH]cn2)c2ccccc2)cc1` (stereo unspecified), the melting point fell in the range of 188 to 193 °C.

`CC(C)NCC(O)c1ccc(N)c(C(F)(F)F)c1` (stereo unspecified): the melting point fell in the range of 136 to 138 °C.

`Cc1ccc(S(=O)(=O)Nc2nc(-c3ccc(OCc4ccccc4)c(OCc4ccccc4)c3)cs2)cc1` displayed a melting point of 158 to 161 °C.

In turn, `CC(C)CCC1CCCCCc2c1oc(=O)c(C(c1ccccc1)C1CC1)c2O` (stereo unspecified) yielded a melting point of 83 to 88 °C.

`CC(Nc1cc(Cl)nc(SCC(=O)O)n1)c1ccc(Cl)cc1` (stereo unspecified) yielded a melting point of 155 to 160 °C.

Regarding `Cc1cc(Oc2cc(F)ccc2[N+](=O)[O-])n[nH]1`, the melting point lay within 95 to 97 °C.

The molecule `CN1CCN(CC2CCCCN2CC(=O)N2c3ccccc3C(=O)Nc3cccnc32)CC1` (stereo unspecified) yielded a melting point of 203 to 205 °C.

`CC(=O)c1ccc(OCCc2nc(-c3ccccc3)oc2C)cc1` yielded a melting point of 70 to 71 °C.

Molecule `CCCCCCCNC(=O)Nc1ccc(O)cc1C(=O)NCCC(c1ccccc1)c1ccccc1` showed a melting point of 161 to 162 °C.

For `Fc1ccc2nc(Cl)c3nnc(C(F)(F)F)n3c2c1`, the melting point fell in the range of 135 to 138 °C.

In the case of `Cc1ccccc1C(=C1CN(C(c2ccccc2)c2ccccc2)C1)S(C)(=O)=O`, the melting point was determined as 218 °C.

`COC(=O)Cc1ccc(OCCNC(=O)C2Cc3ccccc3N2S(=O)(=O)c2ccc(-c3ccc(F)cc3F)cc2)cc1` (stereo unspecified) showed a melting point of 60 to 64 °C.

Take `COc1cc(OC)nc(Oc2cccc(Oc3nc(OC)cc(OC)n3)c2C)n1`: the melting point amounted to 140 °C.

The molecule `Nc1ccc(C(O)(C(F)(F)F)C(F)(F)F)cc1O` gave a melting point of 168 to 170 °C.

With `COCOC(c1cc(CBr)ccc1I)(C(F)(F)F)C(F)(F)F`, the melting point came to 93 °C.

On to `COC(=O)CCc1ccc(N2CCN(CCCCC#N)C2=O)cc1`, for which the melting point fell in the range of 99 to 101 °C.

On to `CCOC(=O)C(=O)Nc1cc(Cl)c(Cl)cc1[N+](=O)[O-]`, for which the melting point was in the range of 96 to 97 °C.

Turning to `CC(C)c1cc(C(C)C)c(CC(=O)NS(=O)(=O)Oc2c(C(C)C)cc(O)cc2C(C)C)c(C(C)C)c1`, the melting point fell in the range of 182 to 183 °C.

`COc1ccc(-c2cncn2-c2ccc(S(C)(=O)=O)cc2)cc1`: the melting point was in the range of 185 to 187 °C.

Molecule `OCCN1CCC(Nc2nc3ccccc3n2Cc2ccc(F)cc2)CC1` displayed a melting point of 139 °C.

Regarding `O=CN1CCN=C1CC(c1ccccc1)c1ccccc1`, the melting point was 105 to 107 °C.

Turning to `CCOC(=O)/C=C/c1c[nH]c(-c2cccs2)c1`, the melting point lay within 104 to 105 °C.

As for `CCOC(=O)Nc1c(OC)cc(CC(C#N)=CNc2ccccc2)cc1OC`, the melting point is 150 to 151 °C.

The molecule `CC1(C)C(=O)N(C(=O)NCC2(O)CCN(CC3(C(=O)O)CCC3)CC2)c2cc(F)ccc21` came in with a melting point of 159 °C.

The molecule `COC1=CC=CC(OCCCN2CCN(c3n[nH]c4ccccc34)CC2)(C(C)=O)C1` (stereo unspecified) came in with a melting point of 155 to 157 °C.

As to `CC1(c2ccccc2)Nc2ccc3c(c2N1)C(=O)c1ccccc1C3=O` (stereo unspecified), the melting point fell in the range of 368 to 371 °C.

The molecule `Cc1c(C(=O)Nc2ccc(N3CCN(C4CCOCC4)CC3)c(C#N)c2)cnn1-c1ccc(C(F)(F)F)cc1` gave a melting point of 274 °C.

`O=C(O)CN(CCN(CC(=O)O)CC(=O)O)CCN(CC(=O)O)CC(=O)NCCC(O)(P(=O)(O)O)P(=O)(O)O` had a melting point of 145 °C.

`C[Si](C)(C)c1cc(Cl)sc1C(=O)NCCCl` came in with a melting point of 68 to 72 °C.

Molecule `O=C(O)CCCc1cc2nc(Cl)ccc2n1S(=O)(=O)c1ccc2c(c1)OCO2` showed a melting point of 160 °C.

As to `O=C1NCCN1Cc1ccc(Cl)cc1`, the melting point fell in the range of 164 to 166 °C.

Consider `CC(C)(C)OC(=O)N1CCn2c(c(I)c(C#N)c2-c2ccccc2)C1`, for which the melting point was in the range of 174 to 178 °C.

For `CC(C)(C)c1ccc2c(c1)C([Si](C)(C)C)c1cc(C(C)(C)C)ccc1-2`, the melting point was 144 to 146 °C.

Molecule `Fc1ccc(-c2cc3c(cc2Br)OCO3)cc1` displayed a melting point of 86 to 87.5 °C.

For `O=C(O)CCC(=O)OCc1ccc(-c2nn(Cc3ccccc3)c3cc(F)ccc23)o1`, the melting point is 120 to 122 °C.

Molecule `CS(=O)(=O)c1ccc(-c2cnn(-c3cc(Cl)cc(Cl)c3)c(=O)c2-c2ccc(F)cc2)cc1` returned a melting point of 289 to 294 °C.

`CCC(C)n1ncn(-c2ccc(N3CCN(c4ccc(OCC(O)(Cn5cncn5)c5ccc(Cl)cc5Cl)cc4)CC3)cn2)c1=O` (stereo unspecified): the melting point fell in the range of 144 to 145 °C.

For `NCc1ccc(-n2c(-c3cccnc3N)nc3ccc(-c4cn[nH]c4)nc32)cc1`, the melting point was 264 to 269 °C.

With `CCOC(=O)C1=C(COCCNC2=NC(=O)CS2)NC(C)=C(C(=O)OC)C1c1cccc(Cl)c1Cl` (stereo unspecified), the melting point lay within 204 to 205 °C.

The molecule `O=C(C=Cc1ccc(COC2OC(CO)C(O)C(O)C2O)o1)c1ccccc1` (stereo unspecified) gave a melting point of 127 °C.

Consider `O=c1oc2c(Br)cc(Br)cc2s1`, for which the melting point lay in the range of 104 to 106 °C.

As for `CN(Cc1ccc(OC(C)(C)C(=O)O)cc1)c1ccc(Cl)cc1`, the melting point lay within 63 to 65 °C.

In turn, `C[Si](C)(C)c1cccc(Cl)c1C(=O)NC(c1ccccc1)n1nnc2ccccc21` (stereo unspecified) yielded a melting point of 184 to 186 °C.

`Nc1ccc(Oc2cc(F)c(C(F)(F)F)c(Cl)c2)cc1`: the melting point lay within 55 to 57 °C.

Regarding `CCCCOCCOc1ccc(-c2ccc(-n3cccn3)c(C=C(C)C(=O)O)c2)cc1`, the melting point is 132 to 134 °C.

In the case of `CN1CCC(CNc2ncc3cc(-c4ccccc4Cl)c(=O)[nH]c3n2)CC1`, the melting point lay in the range of 213 to 220 °C.

Consider `CC(C)(C)c1cc2c(c(C(C)(C)C)c1)OP(OC1CC(C)(C)N(OC3CCCCC3)C(C)(C)C1)Oc1c(cc(C(C)(C)C)cc1C(C)(C)C)C2`, for which the melting point was in the range of 140 to 144 °C.

Molecule `Cc1cc2c(cc1-c1cc(-c3ccc(C(=O)O)cc3)ccc1-c1ccccc1)C(C)(C)CCC2(C)C` gave a melting point of 217 °C.

In turn, `O=C(O)C1=Cc2cc(Br)cc(Cl)c2OC1C(F)(F)F` (stereo unspecified) yielded a melting point of 221 to 222 °C.

In turn, `COc1cc(-c2ccc(S(C)(=O)=O)cc2)c(-c2ccc(F)cc2)c(C(F)(F)F)n1` gave a melting point of 166 to 168 °C.

`OC(CNCCNc1ccccc1Cl)COc1cccc2[nH]ncc12` (stereo unspecified) showed a melting point of 129 to 130 °C.

Molecule `COc1cc2c3c(cccc3c1Br)C(=O)N(O)C2=O` displayed a melting point of 250 to 253 °C.

The molecule `Cc1cc2c(cc1C(=O)c1ccc(C(O)=NOCc3ccccc3)cc1)C(C)(C)CCC2(C)C` displayed a melting point of 169 to 172 °C.

Turning to `CSc1ccccc1CNC(=O)[C@@H]1CCCN(c2cccc3c2C(=O)N(Cc2ccncc2)C3=O)C1`, the melting point was in the range of 216 to 217 °C.

As for `O=C(COc1cccc(C(F)(F)F)c1)N[C@@H](Cc1ccccc1)C(=O)CSCc1ccco1`, the melting point lay within 72 to 80 °C.

Turning to `Cc1[nH]n(-c2c(Cl)cc(C(F)(F)F)cc2Cl)c(=O)c1C=O`, the melting point lay within 195 to 197 °C.

`CCc1nn2c(-c3ccc(Cl)cc3Cl)nc(C)nc2c1N(CC)CC` showed a melting point of 98 to 99 °C.

For `COc1cc2nc(Cl)nc(Cl)c2c(OC)c1OC`, the melting point lay in the range of 213 to 215 °C.

The molecule `CCCNCC(O)c1cccc(Cl)c1` (stereo unspecified) came in with a melting point of 69.5 to 71 °C.

The molecule `CCc1cc2c(ccc(=O)n2Cc2ccc(Oc3ccccc3CC(=O)O)cc2)c(CC)n1` registered a melting point of 211 to 215 °C.

`CSc1nnc(-c2ccc3ccccc3c2)n1C` yielded a melting point of 177 to 179 °C.

For `COC(=O)c1cc(OC(C)C)nn1Cc1ccc(Cl)cc1Cl`, the melting point lay in the range of 89 to 90 °C.

With `OC[C@@H]1CCc2ccc3ncccc3c2O1`, the melting point stood at 128 °C.

`O=[N+]([O-])c1cccc(C(O)CN2CCNC2=S)c1` (stereo unspecified) had a melting point of 163 °C.

In turn, `CO[C@]1(c2ncc(S(=O)(=O)c3ccc(/C(C)=N/O)cc3)s2)CCO[C@@H]1C` (racemic) registered a melting point of 139 to 141 °C.

Regarding `CC(=O)Nc1ccc2[nH]cc(CC#N)c2c1`, the melting point was in the range of 172 to 175 °C.

`COc1ccc2nc3c(cc2c1)c(N)nn3CC(=O)N(C)C` yielded a melting point of 251 to 253 °C.

As a reminder, the melting point is the temperature, or range, at which the solid turns liquid.
